# Read-outs that look alike come from different tables or passages of the source.
# Target: human mGluR5 (Homo sapiens, UniProt P41594)
# Experiment: Cell-based functional Ca2+ mobilization assay (FDSS), potentiation of glutamate EC20 response, HEK293A cells transfected with human mGluR5a (H10H or H12H cell line)
# Conditions: in presence of glutamate EC20, ** = compound is an antagonist; for Emax: HEK293-A; for Emax / Emax (%): % of maximal glutamate response
# Description: Human embryonic kidney (HEK) cells transfected with rat mGluR5 were plated in clear bottom assay plates for assay in a Functional Drug Screening System (FDSS). In the alternative assay, HEK cells transfected with human mGluR5 were plated for assay in the FDSS. In some cases the HEK cells transfected with human mGluR5 are the H10H cell line. Alternatively, the HEK cells transfected with human mGluR5 are the H12H cell line. […] The cells were loaded with a Ca^2+-sensitive fluorescent dye (e.g., Fluo-4), and the plates were washed and placed in the FDSS instrument. After establishment of a fluorescence baseline for about three seconds, the compounds of the present invention were added to the cells, and the response in cells was measured. Five minutes later, an mGluR5 agonist (e.g., glutamate, 3,5-dihydroxyphenylglycine, or quisqualate) was added to the cells, and the response of the cells was measured.
# The above described assay can be operated in two modes. In the first mode, a range of concentrations of the present compounds were added to cells, followed by a single fixed concentration of agonist. If a compound acted as a potentiator, an EC50 value for potentiation and a maximum extent of potentiation by the compound at this concentration of agonist was determined by non-linear curve fitting. In the second mode, several fixed concentrations of the present compounds were added to various wells on a plate, followed by a range of concentrations of agonist for each concentration of present compound; the EC50 values for the agonist at each concentration of compound were determined by non-linear curve fitting. A decrease in the EC50 value of the agonist with increasing concentrations of the present compounds (a leftward shift of the agonist concentration-response curve) is an indication of the degree of mGluR5 potentiation at a given concentration of the present compound. An increase in the EC50 value of the agonist with increasing concentrations of the present compounds (a rightward shift of the agonist concentration-response curve) is an indication of the degree of mGluR5 antagonism at a given concentration of the present compound. The second mode also indicates whether the present compounds also affect the maximum response to mGluR5 to agonists.
# Human mGluR5a cDNA in pCMV6-XL6 mammalian expression plasmid was purchased from OriGene Technologies, Inc. (catalogue number SC326357) and subcloned into pcDNA3.1(−). Human embryonic kidney (HEK)293A cells were then transfected with human mGluR5a pcDNA3.1(−) using LipofectAmine2000 (Invitrogen) and monoclones were selected and tested for functional response using a Ca^2+ mobilization assay. Monoclones were named for the species (“H” for human) plus the location on the plate (e.g. “10H”).
# HEK cells transfected with the human mGluR5a receptor (H10H or H12H cell line) were plated at 15,000 cells/well in clear-bottomed poly-D-lysine-coated assay plates (BD Falcon) in glutamate-glutamine-free growth medium and incubated overnight at 37° C. and 5% CO2. Cell-lines used were either the H10H or H12H cell-lines expressing the human mGluR5 receptor. The following day, the growth medium was removed and the cells were washed with assay buffer containing 1× Hank's balanced salt solution (Invitrogen, Carlsbad, Calif.), 20 mM HEPES, 2.5 mM probenecid, pH 7.4 and left with 20 μL of this reagent. Following this step, the cells were loaded with calcium indicator dye, fluo-4 AM, to a final concentration of 2 μM and incubated for 40-45 min at 37° C. The dye solution was removed and replaced with assay buffer. Cell plates were held for 10-15 min at room temperature and were then loaded into the Functional Drug Screening System 6000 (FDSS 6000, Hamamatsu, Japan).
# After establishment of a fluorescence baseline for about 3 seconds, the compounds of the present invention were added to the cells, and the response in cells was measured.
# [1] = H10H cell line expressing recombinant human mGluR5, read-out: pEC50 (converted)
# [2] = H10H cell line expressing recombinant human mGluR5
# human mGluR5, sequence (P41594 21-1180 isoform P41594-2 limits assumed): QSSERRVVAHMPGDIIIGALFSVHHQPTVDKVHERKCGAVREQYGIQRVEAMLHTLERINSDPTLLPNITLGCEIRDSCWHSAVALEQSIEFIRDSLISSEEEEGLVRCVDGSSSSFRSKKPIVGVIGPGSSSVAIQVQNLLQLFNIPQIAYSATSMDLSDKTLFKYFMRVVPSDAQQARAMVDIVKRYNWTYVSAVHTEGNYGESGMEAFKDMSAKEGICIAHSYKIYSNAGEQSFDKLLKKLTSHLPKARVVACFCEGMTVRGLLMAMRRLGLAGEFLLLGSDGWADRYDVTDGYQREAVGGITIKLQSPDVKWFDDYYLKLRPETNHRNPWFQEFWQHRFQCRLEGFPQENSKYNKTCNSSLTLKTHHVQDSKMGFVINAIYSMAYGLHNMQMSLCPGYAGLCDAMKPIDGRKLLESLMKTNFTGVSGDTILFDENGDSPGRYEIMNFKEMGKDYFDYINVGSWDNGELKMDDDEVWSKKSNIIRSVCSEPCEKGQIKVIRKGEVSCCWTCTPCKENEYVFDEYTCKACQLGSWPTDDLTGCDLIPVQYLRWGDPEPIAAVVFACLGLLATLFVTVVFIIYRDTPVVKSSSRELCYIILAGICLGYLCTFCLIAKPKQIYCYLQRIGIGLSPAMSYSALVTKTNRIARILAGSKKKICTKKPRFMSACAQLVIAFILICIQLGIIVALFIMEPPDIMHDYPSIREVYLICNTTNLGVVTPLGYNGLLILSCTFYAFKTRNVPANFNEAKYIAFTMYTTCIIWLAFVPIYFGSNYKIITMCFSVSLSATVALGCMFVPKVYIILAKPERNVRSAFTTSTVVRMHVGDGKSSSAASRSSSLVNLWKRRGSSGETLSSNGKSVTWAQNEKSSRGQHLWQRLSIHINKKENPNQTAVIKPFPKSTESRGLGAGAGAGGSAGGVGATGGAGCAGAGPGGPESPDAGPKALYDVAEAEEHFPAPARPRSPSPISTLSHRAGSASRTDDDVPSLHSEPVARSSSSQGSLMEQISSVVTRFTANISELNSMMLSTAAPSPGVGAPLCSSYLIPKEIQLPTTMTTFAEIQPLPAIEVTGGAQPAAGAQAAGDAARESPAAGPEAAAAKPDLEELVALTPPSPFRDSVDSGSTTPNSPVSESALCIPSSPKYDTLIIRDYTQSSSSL
EC50 [1],Emax [2],Emax (%) [2],pEC50 [2],Compound,"EC50 (pEC50, H10H cell line expressing recombinant human mGluR5)"
25.1 nM,69%,–,–,Cn1c(Cl)ccc1C(=O)N1CCn2nc(OCc3ccccc3)cc2C1 [Example B81],–
178 nM,35%,–,–,O=C(c1ccc(F)cc1)N1CCn2nc(OCc3ccnc(Cl)c3)cc2C1 [Example B126],–
562 nM,36%,–,–,N#Cc1cc(COc2cc3n(n2)CCN(C(=O)c2ccc(F)cc2)C3)ccn1 [Example B127],–
> 30200 nM,16%,–,–,O=C(CC(F)(F)F)N1CCn2nc(OCc3ccccc3)cc2C1 [Example B69],–
676 nM,54%,–,–,O=C(c1ccc(F)cc1)N1CCn2nc(OCc3cccc(C(F)F)c3)cc2C1 [Example B124],–
2340 nM,30%,–,–,O=C(C1CC1c1ccccc1)N1CCn2nc(OCc3ccccc3)cc2C1 (stereo not shown) [Example B71],–
347 nM,65%,–,–,Cn1cc(C(=O)N2CCn3nc(OCc4cccc(F)c4)cc3C2)cc1Cl [Example B93],–
> 10000 nM,56%,–,–,O=C(c1ncc(F)cc1F)N1CCn2nc(OCc3ccccc3)cc2C1 [Example B65],–
> 30200 nM,15%,–,–,CO[C@](C(=O)N1CCn2nc(OCc3ccccc3)cc2C1)(c1ccccc1)C(F)(F)F [Example B87],–
617 nM,40%,–,–,CN(C)c1cccc(C(=O)N2CCn3nc(OCc4ccccc4)cc3C2)n1 [Example B88],–
> 30200 nM,28%,–,–,CS(=O)(=O)c1cccc(COc2cc3n(n2)CCN(C(=O)c2ccc(F)cc2)C3)c1 [Example B122],–
3800 nM,34%,–,–,O=C(COCc1ccccc1)N1CCn2nc(OCc3ccccc3)cc2C1 [Example B72],–
537 nM,52%,–,–,Cn1ccc(C(=O)N2CCn3nc(OCc4cccc(F)c4)cc3C2)c1 [Example B92],–
> 30200 nM,28%,–,–,CC(=O)N1CCn2nc(OCc3ccccc3)cc2C1 [Example B108],–
22.9 nM,65%,–,–,"Cn1c(Cl)ccc1C(=O)N1CCn2nc(OCc3cccc(F)c3)cc2C1 [Example B80, (5-chloro-1-methyl-1H-pyrrol-2-yl)-[2-(3-fluoro-benzyloxy)-6,7-dihydro-4H-pyrazolo[1,5-a]pyrazin-5-yl]-methanone]",–
≥ 10000 nM,41%,–,–,O=C(c1ccc(F)cc1)N1CCn2nc(OCc3ccncc3Cl)cc2C1 [Example B136],–
≥ 10000 nM,51%,–,–,O=C(c1ccc(F)cc1)N1CCn2nc(OCc3ccnc(F)c3)cc2C1 [Example B116],–
> 30200 nM,25%,–,–,O=C(CCC(F)(F)F)N1CCn2nc(OCc3ccccc3)cc2C1 [Example B70],–
1320 nM,32%,–,–,Cn1cc(C(=O)N2CCn3nc(OCc4cccc(F)c4)cc3C2)c2ccccc21 [Example B79],–
> 30200 nM,27%,–,–,CCC(C)C(=O)N1CCn2nc(OCc3ccccc3)cc2C1 (stereo not shown) [Example B75],–
> 10000 nM,38%,–,–,O=C(c1cccnc1)N1CCn2nc(OCc3ccccc3)cc2C1 [Example B64],–
> 30200 nM,28%,–,–,Cn1ccc(COc2cc3n(n2)CCN(C(=O)c2ccc(F)cc2)C3)cc1=O [Example B128],–
355 nM,69%,–,–,CC(C)(C)CC(=O)N1CCn2nc(OCc3ccccc3)cc2C1 [Example B68],–
3630 nM,69%,–,–,C[C@H]1Cn2nc(OCc3ccccc3)cc2CN1C(=O)c1ccc(Cl)n1C [Example B91],–

# The next lines start with the compound.
Compound,EC50 [1],Emax [2],Emax (%) [2],pEC50 [2],"EC50 (pEC50, H10H cell line expressing recombinant human mGluR5)"
O=C(c1ccc(Cl)c(Cl)c1)N1CCn2nc(OCc3ccccc3)cc2C1 [Example B42],1230 nM,39%,–,–,–
O=C(c1cnccn1)N1CCn2nc(OCc3ccccc3)cc2C1 [Example B37],> 10000 nM,44%,–,–,–
CC(C)(C)CCC(=O)N1CCn2nc(OCc3ccccc3)cc2C1 [Example B26],589 nM,59%,–,–,–
N#Cc1ccc(C(=O)N2CCn3nc(OCc4ccccc4)cc3C2)c(F)c1 [Example B46],> 30200 nM,20%,–,–,–
O=C(c1ccco1)N1CCn2nc(OCc3ccccc3)cc2C1 [Example B55],–,55%,–,–,324 nM
Cc1ccoc1C(=O)N1CCn2nc(OCc3ccccc3)cc2C1 [Example B54],> 30200 nM,20%,–,–,–
O=C(c1ccc[nH]1)N1CCn2nc(OCc3ccccc3)cc2C1 [Example B57],1230 nM,39%,–,–,–
O=C(c1ccc(Cl)cc1)N1CCn2nc(OCc3ccccc3)cc2C1 [Example B40],269 nM,46%,–,–,–
CCOCC(=O)N1CCn2nc(OCc3ccccc3)cc2C1 [Example B27],> 30200 nM,17%,–,–,–
O=C(c1cc(Cl)cc(Cl)c1)N1CCn2nc(OCc3ccccc3)cc2C1 [Example B47],110 nM,25%,–,–,–
O=C(c1ccccc1C(F)(F)F)N1CCn2nc(OCc3ccccc3)cc2C1 [Example B41],> 30200 nM,25%,–,–,–
O=C(c1ccncc1)N1CCn2nc(OCc3ccccc3)cc2C1 [Example B62],1860 nM,20%,–,–,–
"O=C(c1ccc(F)cc1)N1CCn2nc(OCc3ccccc3)cc2C1 [Example B1, 2-(benzyloxy)-5-[(4-fluorophenyl)carbonyl]-4,5,6,7-tetrahydropyrazolo[1,5-a]pyrazine]",166 nM,68%,–,–,–
O=C(c1ccccn1)N1CCn2nc(OCc3ccccc3)cc2C1 [Example B61],4270 nM,46%,–,–,–
O=C(c1cc[nH]n1)N1CCn2nc(OCc3ccccc3)cc2C1 [Example B52],2000 nM,71%,–,–,–
O=C(c1ncccn1)N1CCn2nc(OCc3ccccc3)cc2C1 [Example B51],> 30200 nM,26%,–,–,–
"1-(2-(benzyloxy)-6,7-dihydropyrazolo[1,5-a]pyrazin-5(4H)-yl)-2-(tert-butylamino)ethanone [Example B24]",–,–,28%,<4.52,–
CC(C)OCC(=O)N1CCn2nc(OCc3ccccc3)cc2C1 [Example B23],3240 nM,34%,–,–,–
O=C(c1c[nH]c2ccccc12)N1CCn2nc(OCc3ccccc3)cc2C1 [Example B59],166 nM,71%,–,–,–
O=C(c1ccsc1)N1CCn2nc(OCc3ccccc3)cc2C1 [Example B60],275 nM,61%,–,–,–
O=C(c1ccc(F)c(F)c1)N1CCn2nc(OCc3ccccc3)cc2C1 [Example B49],692 nM,57%,–,–,–
O=C(c1ccc(F)c(C(F)(F)F)c1)N1CCn2nc(OCc3ccccc3)cc2C1 [Example B39],–,–,51%,–,–
O=C(c1ccccc1Cl)N1CCn2nc(OCc3ccccc3)cc2C1 [Example B44],95.5 nM,33%,–,–,–
C[C@@H]1Cn2nc(OCc3ccccc3)cc2CN1C(=O)c1ccc(F)cc1 [Example B7],813 nM,62%,–,–,–
O=C(c1n[nH]c2ccccc12)N1CCn2nc(OCc3ccccc3)cc2C1 [Example B53],117 nM,69%,–,–,–
CC(C)(C)NCC(=O)N1CCn2nc(OCc3ccccc3)cc2C1 [Example B25],> 30200 nM,20%,–,–,–
CCOc1ccccc1C(=O)N1CCn2nc(OCc3ccccc3)cc2C1 [Example B48],> 30200 nM,13%,–,–,–
O=C(c1cccc(Cl)c1)N1CCn2nc(OCc3ccccc3)cc2C1 [Example B43],70.8 nM,51%,–,–,–

# Source: patent US9029366B2, “Substituted bicyclic alkoxy pyrazole analogs as allosteric modulators of mGluR5 receptors” (Vanderbilt University, priority 2012, dated 2015)
